Laboratory results as given in ChEMBL document CHEMBL1201862, “PubChem BioAssay data set” (2004).
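Five concentrations, 48 hours, 96-well plates. GI50 = concentration required for 50% inhibition of growth.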 Calls of active or inactive are those of the source. Rule as the data show it: active = GI50 up to about 1.1 µM and inactive = higher.

Tests used:
Assay in all cases: growth of human tumour cells (NCI), 48 h
[1] = test system: HCT-15
[2] = test system: SF-268
[3] = test system: A498
[4] = test system: NCI-H522
[5] = test system: CCRF-CEM
[6] = test system: M14
[7] = test system: HOP-92
[8] = test system: MDA-MB-231
[9] = test system: RPMI-8226
[10] = test system: SK-MEL-2
[11] = test system: SR
[12] = test system: EKVX
[13] = test system: NCI/ADR-RES
[14] = test system: OVCAR-8
[15] = test system: Hs-578T
[16] = test system: SF-295
[17] = test system: BT-549
[18] = test system: MOLT-4
[19] = test system: SK-MEL-5
[20] = test system: Malme-3M

Row | SMILES | GI50 [1] [µM] | GI50 [2] | GI50 [3] | GI50 [4] | GI50 [5] | GI50 [6] | GI50 [7] | GI50 [8] | GI50 [9] | GI50 [10] | GI50 [11] | GI50 [12] | GI50 [13] | GI50 [14] | GI50 [15] | GI50 [16] | GI50 [17] | GI50 [18] | GI50 [19] | GI50 [20]
1 | O=C1CC2SC(COCc3ccccc3)(CCN2Cc2ccccc2)C1 (configuration not stated) | 40.6 | > 100 µM (inactive) | > 100 µM (inactive) | 56.8 µM (inactive) | 65 µM (inactive) | 49.1 µM (inactive) | 45.6 µM (inactive) | > 100 µM (inactive) | 30.2 µM (inactive) | > 100 µM (inactive) | 35.2 µM (inactive) | 64.3 µM (inactive) | 65 µM (inactive) | > 100 µM (inactive) | > 100 µM (inactive) | 61.2 µM (inactive) | 51.1 µM (inactive) | 30.3 µM (inactive) | 19.5 µM (inactive) | 39.3 µM (inactive)
2 | CC(C)(CC(O)C#N)/[N+]([O-])=[N+](\[O-])C(C)(C)CC(O)C#N (configuration not stated) | 15.2 | 23.4 µM (inactive) | > 100 µM (inactive) | 13.8 µM (inactive) |  | 16 µM (inactive) | 18.2 µM (inactive) | 23.9 µM (inactive) | 19.4 µM (inactive) | 43 µM (inactive) | 15.2 µM (inactive) | 32.6 µM (inactive) | 38.2 µM (inactive) | 32.3 µM (inactive) | 12.2 µM (inactive) | 35.7 µM (inactive) | 20.6 µM (inactive) | 10.3 µM (inactive) | 29.2 µM (inactive) | 21.6 µM (inactive)
3 | NC1=NC2(COC(c3ccccc3)(c3ccccc3)c3ccccc3)OC(COC(c3ccccc3)(c3ccccc3)c3ccccc3)C(O)C2O1 (configuration not stated) | > 100 |  | > 100 µM (inactive) | 52.5 µM (inactive) | 21.3 µM (inactive) | > 100 µM (inactive) | 15.2 µM (inactive) | 67.1 µM (inactive) | 16.6 µM (inactive) | 5.77 µM (inactive) | 32.9 µM (inactive) | 16.4 µM (inactive) | 21.1 µM (inactive) | 5.98 µM (inactive) | 0.258 µM (active) | 46.5 µM (inactive) | 41.3 µM (inactive) | 13.2 µM (inactive) | 26.1 µM (inactive) | 18.4 µM (inactive)
4 | c1csc(-c2cc(-c3ccsc3)cs2)c1 | > 100 | > 100 µM (inactive) | > 100 µM (inactive) |  | > 100 µM (inactive) | > 100 µM (inactive) | > 100 µM (inactive) | > 100 µM (inactive) | > 100 µM (inactive) | 98.6 µM (inactive) | 14.4 µM (inactive) | 52.7 µM (inactive) | > 100 µM (inactive) |  | 21 µM (inactive) | 32.1 µM (inactive) | > 100 µM (inactive) | 87.1 µM (inactive) | > 100 µM (inactive) | 
5 | C=CCSC1=N/C(=C\c2cccs2)C(=O)N1CC=C | 66.1 | > 100 µM (inactive) | 26.4 µM (inactive) | 49.4 µM (inactive) |  | 54.5 µM (inactive) | 12.9 µM (inactive) | 83.4 µM (inactive) | 21.9 µM (inactive) | > 100 µM (inactive) | 32.5 µM (inactive) | 19.2 µM (inactive) | 75.2 µM (inactive) | 44.6 µM (inactive) | > 100 µM (inactive) | 81.5 µM (inactive) | 44.4 µM (inactive) | 18.7 µM (inactive) | 32.3 µM (inactive) | > 100 µM (inactive)
6 | CC(C)Nc1[nH]c(C(=O)c2ccccc2)c(N)c1C(=S)Nc1ccccc1 | 32.8 | 67.8 µM (inactive) | 77.6 µM (inactive) | 63.8 µM (inactive) | > 100 µM (inactive) | 23.2 µM (inactive) | > 100 µM (inactive) | 28.5 µM (inactive) |  | 23.8 µM (inactive) | 43.5 µM (inactive) | > 100 µM (inactive) | > 100 µM (inactive) | 84.7 µM (inactive) | 86.1 µM (inactive) | > 100 µM (inactive) | > 100 µM (inactive) | 80.9 µM (inactive) | 28.9 µM (inactive) | 19.3 µM (inactive)
7 | CC[C@H]1C=CCC[C@@]2(C[C@@H]3CC[C@@H]4[C@H](C(=O)OCCCCCCCCCCCCCCCC(=O)N(CCCN)C[C@@H](O)CCN)[C@]5(CCC[C@@H](C)O5)NC(=[N+]34)N2)O1 | 0.41 | 0.544 µM (active) | 0.625 µM (active) | 0.174 µM (active) |  | 0.0249 µM (active) | 0.158 µM (active) | 0.748 µM (active) | 0.0855 µM (active) | 0.229 µM (active) | 0.0802 µM (active) | 0.897 µM (active) | 0.733 µM (active) | 0.451 µM (active) | 1.21 µM (inactive) | 0.518 µM (active) | 0.807 µM (active) | 0.0869 µM (active) | 0.0407 µM (active) | 0.245 µM (active)
8 | O=C1C(CN2CCCCC2)CCC1CN1CCCCC1 (configuration not stated) | 20 | 49.8 µM (inactive) | 15.2 µM (inactive) | 5.35 µM (inactive) | 1.06 µM (active) | 15.5 µM (inactive) | 23.2 µM (inactive) | 20.2 µM (inactive) | 9.91 µM (inactive) | 30.1 µM (inactive) | 1.6 µM (inactive) | > 100 µM (inactive) | 37.4 µM (inactive) | 26.8 µM (inactive) | > 51.3 µM (inactive) | > 46.5 µM (inactive) | 19.1 µM (inactive) | 2.22 µM (inactive) | 43.9 µM (inactive) | 17.7 µM (inactive)
9 | Cc1ccc(NC(=O)/C(Cc2cc(=O)oc3cc(O)ccc23)=N\NC(C)(C)C)cc1C | > 100 | > 100 µM (inactive) | > 100 µM (inactive) |  | > 100 µM (inactive) | > 100 µM (inactive) | > 100 µM (inactive) | > 100 µM (inactive) | > 100 µM (inactive) | > 100 µM (inactive) | > 100 µM (inactive) |  | > 100 µM (inactive) | > 100 µM (inactive) | > 100 µM (inactive) | > 100 µM (inactive) | > 100 µM (inactive) | > 100 µM (inactive) | > 100 µM (inactive) | 
10 | CCN(CC)c1ccc(/C=c2\nc(-c3ccccc3)n3c2nc2ccccc23)cc1 | 1.23 | 26.5 µM (inactive) | 64.4 µM (inactive) |  | 0.544 µM (active) | 7.46 µM (inactive) | 68.7 µM (inactive) | 14.8 µM (inactive) | 1.48 µM (inactive) | 15.4 µM (inactive) | 1.68 µM (inactive) | 1.67 µM (inactive) | 3.98 µM (inactive) | 9.79 µM (inactive) | 24.4 µM (inactive) | 4.58 µM (inactive) | 16.9 µM (inactive) | 1.63 µM (inactive) | 3.64 µM (inactive) | 13 µM (inactive)
11 | CC(=O)OCC1OC(n2nc(Cc3ccccc3)c(=S)[nH]c2=S)C(OC(C)=O)C(OC(C)=O)C1OC(C)=O (configuration not stated) | 19.4 | 21.6 µM (inactive) | 32.1 µM (inactive) | 21.4 µM (inactive) |  | 19.4 µM (inactive) | 20.4 µM (inactive) | 14.7 µM (inactive) |  | 17.7 µM (inactive) | 31.2 µM (inactive) |  | > 100 µM (inactive) | 23.6 µM (inactive) | 20.2 µM (inactive) | 43.2 µM (inactive) | 19.6 µM (inactive) | 23.2 µM (inactive) | 82 µM (inactive) | 31.6 µM (inactive)
12 | COC(=O)[C@]1(C)[C@H]2C[C@H]3O[C@H]4[C@H](O)[C@@H](O)OC(CC(O)C(C5=CC(=O)OC5)C(C5=CC(=O)OC5)C(O)CC56CCCCC7[C@@H](C)[C@H](C[C@H]8[C@](C)(C(=O)OC)[C@H](O)CC[C@]78C)O[C@H]([C@@H](O)[C@H](O)O5)[C@H]6O)(CCCCC([C@@H]3C)[C@]2(C)CC[C@@H]1O)[C@H]4O (some centres not stated) | 0.143 | < 0.0272 µM (active) | 0.0916 µM (active) | < 0.01 µM (active) | 0.0603 µM (active) | 0.332 µM (active) | 0.281 µM (active) | 0.347 µM (active) |  | 0.237 µM (active) | 0.0545 µM (active) | 0.0295 µM (active) | 0.0973 µM (active) | 0.188 µM (active) | < 0.0251 µM (active) | 0.0767 µM (active) | 0.0625 µM (active) | < 0.0184 µM (active) | 0.0296 µM (active) | 0.0989 µM (active)
13 | O=C1Nc2cc([N+](=O)[O-])ccc2N/C1=C/C(=O)c1ccc(Cl)cc1 | 12.6 | 11.7 µM (inactive) | 19.7 µM (inactive) |  | 10.5 µM (inactive) | 12.9 µM (inactive) | 16 µM (inactive) | 5.83 µM (inactive) | 10.9 µM (inactive) | 16.9 µM (inactive) | 12.2 µM (inactive) | 15.7 µM (inactive) | 7.71 µM (inactive) | 8 µM (inactive) | 11.5 µM (inactive) | 13.3 µM (inactive) | 5.27 µM (inactive) | 17 µM (inactive) | 15.9 µM (inactive) | 26.3 µM (inactive)
14 | CN(C)c1n/c(=N/Cc2ccco2)ss1 | 21.3 | 11.7 µM (inactive) | > 78 µM (inactive) | 0.307 µM (active) | 1.43 µM (inactive) | 21 µM (inactive) |  | 15.8 µM (inactive) | 1.79 µM (inactive) | > 21.1 µM (inactive) | 0.521 µM (active) | 37.9 µM (inactive) | 75.3 µM (inactive) | 31.7 µM (inactive) | 29.6 µM (inactive) | 37.2 µM (inactive) | 18.6 µM (inactive) | 5.73 µM (inactive) | 2.76 µM (inactive) | 18.7 µM (inactive)
